Drawing on patent publication US12421228B2 (Mirati Therapeutics, Inc., priority 2019, dated 2025), this text covers IC50 for 14 molecules.

The test system of assay [1] is PRC2-mediated histone H3 methylation in Pfeiffer cells (EZH2 A677G). The assay can be described thus: Tri-Methyl Histone H3 (Lys 27) sandwich ELISA in Pfeiffer cells. The note with it: Homo sapiens, 96 hours incubation, H3K27me3 ELISA, read-out: IC50 (nM), Inhibition of EZH2-mediated Histone H3 Trimethylation. It counts as cell-based. From the text:
The Pfeiffer cell line was established from a […] from a patient having metastatic diffuse large B-cell lymphoma (DLBCL). This cell line expresses a mutant form of the EZH2 enzyme (A677G) that results in enhanced EZH2 activity leading to increased methylation of histone H3 Lys27. Increased trimethylation of histone H3 Lys27 is believed to be implicated in tumorgenesis and poor clinical prognosis in lymphomas (McCabe et al., (2012) Nature 492:108-112).
Inhibition of PRC2-mediated histone H3 methylation by compounds of Formula (I) was measured by ELISA using a Tri-Methyl Histone H3 (Lys 27) Sandwich ELISA Kit (Cell Signaling Tech #7866C) in accordance with the manufacturer's instructions. Briefly, Pfeiffer cells were cultured in RPMI medium supplemented with 10% fetal bovine serum and 1% penicillin and 1% streptomycin in 96 well culture plates at 37° C. to a density of 8000 cells/90 μl/well and the cells were harvested. A series of 3-fold serial dilutions of each test compound of Formula (I) were prepared in RPMI medium and added to the cells at final concentrations ranging from […] to 0.15 nM. The plates were incubated at 37° C. for 96 hours.
After incubation, the cells were pelleted by centrifugation in a pre-cooled 4° C. rotor at 1,100 rpm for 10 min and the supernatant was removed by aspiration. The cell pellet was resuspended in 55 μl of Lysis Buffer (0.4M HCl) and incubated on ice with periodic shaking for 30 minutes. The lysed cells were subjected to centrifugation at 4,200 rpm for 10 min at 4° C. and the supernatant containing acid-soluble proteins was collected and the remainder discarded. The acid-soluble proteins were brought to a neutral pH by the addition of 20 μl of Neutralization Buffer (1 M Sodium phosphate, dibasic (pH 12.5), 2.5 mM DTT and 1 mM PMSF) and the neutralized lysates were analyzed by ELISA.
A 65 μl aliquot of each cell lysate was added to a well of a microwell strip, the microwells were sealed using tape and incubated either at 37° C. for two hours or at 4° C. overnight. After incubation, the tape was removed at the microwells were washed four times using 200 μl of 1× Wash Buffer. To each washed microwell, a 100 μl aliquot of an anti-trimethyl histone H3 Lys27 Detection Antibody solution was added and the microwells were incubated at 37° C. for one hour. The Detection Antibody solution was removed by aspiration and the wells were washed four times each using 200 μl of 1× Wash Buffer.
A 100 μl aliquot of an HRP-linked secondary antibody was added to each well, the wells were sealed with tape and incubated at 37° C. for 30 min. The HRP-linked secondary antibody solution was removed by aspiration and the wells were washed four times using 200 μl of 1× Wash Buffer. A 100 μl aliquot of a TMB substrate was added to each well, the wells were sealed with tape and incubated at 37° C. for 10 min or 25° C. for 30 min. The reaction was stopped by the addition of 100 μl aliquot of a STOP solution and the plate was shaken briefly. The degree of histone H3 trimethylation was determined using a spectrophotometric readout by measuring the absorbance at 450 nm and then calculating the amount of trimethylated histone H3. A=≤100 nM; B=>100 nM−≤500 nM; C=>500 nM and N.D.=not determined.
In general terms: In an ELISA, binding on a coated surface is turned into a signal by an enzyme label.

Assay [2] has as its system Karpas 422 cells (EZH2 Y641N). The assay can be described thus: Karpas 422 cell viability (Cell Titre Glo). It is filed as cell-based. The note with it: Homo sapiens, CTG viability, Day 4, Day 7 or Day 11 (time point not given), read-out: IC50 (nM), Inhibiting Proliferation of Cells Expressing an Activating Mutant Form of EZH2. Here is the method:
Karpas 422 cell line is a human B cell non-Hodgkin's lymphoma cell line established from a patient having DLBCL. This EZH2 heterozygotic cell line expresses a mutant form of EZH2 enzyme (Y641N) that increases histone H3 methylation and this mutation has been implicated in the tumorgenesis of lymphomas, such as DLBCL.
Karpas 422 cells (PHE cat no., 06101702) were cultured in RPMI medium supplemented with 20% fetal bovine serum and 1% penicillin/1% streptomycin and plated at a density of 1000 cells/90 μl/well in 96 well white assay plates. A dose response curve for compounds of the present invention was determined by adding a 10 μl aliquot of stock solutions of varying concentrations of compounds to the same medium in each well, over a concentration range of 10 μM using 3-fold dilutions to a final concentration of 1.5 nM. The plates were incubated at 37° C. for predetermined time periods, Day 4, Day 7, or Day 11, and the viability of the cells was measured using a CTG assay kit (Cell Titre Glo; Promega cat. no G7573) on Day 4 and Day 7 in accordance with the manufacturer's instructions.
For the viability assay for the Day 11 plates, the plates were subjected to centrifugation at 1100 rpm for five minutes on Day 7 and the supernatant was removed by aspiration. The cells were resuspended in 90 μl aliquot of the appropriate growth medium lacking the compound followed by addition of 10 μl of a 10× stock of the same compound at the same concentration. The viability of the Day 11 cells was measured using the CTG assay kit described above in accordance with the manufacturer's instructions. The IC50 values for each compound at each predetermined time point were calculated using Graph pad PRISM software and the results are shown in Table 8. A=≤250 nM; B=[…]−≤500 nM; C=>500 nM and N.D.=not determined.

For assay [3], the target named is purified human, His-tagged PRC2 complex (Homo sapiens (Human), UniProt O75530). The assay can be described thus: Hot Spot HMT assay, inhibition of PRC2 enzymatic activity. It counts as biochemical. Conditions: 10 nM PRC2 complex, 0.05 mg/ml core histone H3, 1 μM 3H-SAM, 1 hr at 30° C.; read-out: IC50, Inhibition of PRC2-mediated Enzymatic Activity. Here is the method:
Ten-point dose-response curves for compounds of the present invention were determined using a Hot Spot HMT assay (Reaction Biology Corp; see Horiuchi et al., Assay Drug Dev Technol. (2013) 4: 227-236 doi: 10.1089/adt.2012.480). The assay uses purified human, His-tagged PRC2 complex, including N-terminal His-tagged EZH2 enzyme, N-terminal Flag-tagged embryonic ectoderm development protein (EED), N-terminal His-tagged suppressor of zeste 12 (SUZ12), N-terminal His-tagged AEBP2, and N-terminal His-tagged RbAp48. In this assay, the transfer of the tritiated methyl group from radiolabeled S-adenosyl methionine (SAM) to purified core histone protein by EZH2 is quantitated after filtration to determine the activity of the core PRC2 complex in the presence and absence of compound.
Briefly, compounds of the present invention were solubilized in DMSO and a series of 10, three-fold serial dilutions were made for each compound in 15% DMSO. The initial starting concentration for the serial dilutions of each compound was 1.0 μM. Control samples lacking compound, EZH2 enzyme or various reaction components also were prepared and processed in parallel with compound test samples. SAH (S-(5-adenosyl)-L-homocysteine) was used as a positive control for assay validation.
An aliquot of each serial dilution of test compound was added to deep 384 well plate using Acoustic Technology instrument (Echo 550, LabCyte) containing reaction buffer (50 mM Tris-HCl (pH 8)), 0.01% Brij35, 1 mM EDTA, 1 mM DTT, 1 mM PMSF and 1% DMSO), 10 nM purified PRC2 complex and 0.05 mg/ml core histone H3 in a 5 μl volume. The reaction was mixed gently and then pre-incubated for 20 min at 30° C. The enzymatic reaction was initiated by adding 1 μM S-Adenosyl-L-[methyl-^3H]methionine and incubated for 1 hr at 30° C. After 1 hr, the reaction product was detected using a filter binding method and the amount of tritiated H3 core histone was quantitated using a scintillation counter. The IC50 value for each compound was determined from each 10-point dose-response curve using GraphPad Prism software and the results for compounds of present invention, including compounds of Formula (I) and Formula (II) are shown in Table 6. Key: A=<100 nM; B=>100 nM−<250 nM; and C=>250 nM.

Molecules are shown by their SMILES.

Chain of purified human, His-tagged PRC2 complex (Q15910 whole entry): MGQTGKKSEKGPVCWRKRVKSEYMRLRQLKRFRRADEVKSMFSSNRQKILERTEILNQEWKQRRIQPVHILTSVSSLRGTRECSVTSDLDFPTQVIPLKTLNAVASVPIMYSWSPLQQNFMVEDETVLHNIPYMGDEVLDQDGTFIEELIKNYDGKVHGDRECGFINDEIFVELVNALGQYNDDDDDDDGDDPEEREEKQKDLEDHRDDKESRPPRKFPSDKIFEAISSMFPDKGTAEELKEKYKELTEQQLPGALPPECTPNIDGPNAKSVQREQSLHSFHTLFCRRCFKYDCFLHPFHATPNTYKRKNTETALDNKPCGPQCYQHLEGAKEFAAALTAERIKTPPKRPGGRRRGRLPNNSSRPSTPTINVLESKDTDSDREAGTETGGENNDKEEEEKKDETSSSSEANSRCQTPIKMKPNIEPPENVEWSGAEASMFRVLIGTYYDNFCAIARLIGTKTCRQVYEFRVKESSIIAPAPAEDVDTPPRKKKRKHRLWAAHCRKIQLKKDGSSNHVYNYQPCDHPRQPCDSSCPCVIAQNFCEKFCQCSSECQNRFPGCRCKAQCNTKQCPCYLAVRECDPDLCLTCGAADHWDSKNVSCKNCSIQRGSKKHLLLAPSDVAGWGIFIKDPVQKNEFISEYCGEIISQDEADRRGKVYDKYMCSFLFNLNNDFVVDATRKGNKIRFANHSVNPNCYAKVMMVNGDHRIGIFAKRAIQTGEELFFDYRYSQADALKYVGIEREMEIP
Chain of purified human, His-tagged PRC2 complex (O75530 whole entry): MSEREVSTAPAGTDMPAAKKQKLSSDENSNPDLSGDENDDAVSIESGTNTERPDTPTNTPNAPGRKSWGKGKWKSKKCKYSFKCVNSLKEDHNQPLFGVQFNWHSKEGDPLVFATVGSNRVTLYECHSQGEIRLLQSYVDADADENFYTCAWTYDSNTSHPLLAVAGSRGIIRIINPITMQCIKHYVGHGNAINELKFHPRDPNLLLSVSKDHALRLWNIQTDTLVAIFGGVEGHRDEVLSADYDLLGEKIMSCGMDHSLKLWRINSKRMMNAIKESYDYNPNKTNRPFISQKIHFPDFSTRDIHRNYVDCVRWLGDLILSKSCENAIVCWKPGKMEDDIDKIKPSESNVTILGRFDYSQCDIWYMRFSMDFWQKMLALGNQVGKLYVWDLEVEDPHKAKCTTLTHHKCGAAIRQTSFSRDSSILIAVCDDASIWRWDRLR
Chain of purified human, His-tagged PRC2 complex (Q15022 whole entry partner): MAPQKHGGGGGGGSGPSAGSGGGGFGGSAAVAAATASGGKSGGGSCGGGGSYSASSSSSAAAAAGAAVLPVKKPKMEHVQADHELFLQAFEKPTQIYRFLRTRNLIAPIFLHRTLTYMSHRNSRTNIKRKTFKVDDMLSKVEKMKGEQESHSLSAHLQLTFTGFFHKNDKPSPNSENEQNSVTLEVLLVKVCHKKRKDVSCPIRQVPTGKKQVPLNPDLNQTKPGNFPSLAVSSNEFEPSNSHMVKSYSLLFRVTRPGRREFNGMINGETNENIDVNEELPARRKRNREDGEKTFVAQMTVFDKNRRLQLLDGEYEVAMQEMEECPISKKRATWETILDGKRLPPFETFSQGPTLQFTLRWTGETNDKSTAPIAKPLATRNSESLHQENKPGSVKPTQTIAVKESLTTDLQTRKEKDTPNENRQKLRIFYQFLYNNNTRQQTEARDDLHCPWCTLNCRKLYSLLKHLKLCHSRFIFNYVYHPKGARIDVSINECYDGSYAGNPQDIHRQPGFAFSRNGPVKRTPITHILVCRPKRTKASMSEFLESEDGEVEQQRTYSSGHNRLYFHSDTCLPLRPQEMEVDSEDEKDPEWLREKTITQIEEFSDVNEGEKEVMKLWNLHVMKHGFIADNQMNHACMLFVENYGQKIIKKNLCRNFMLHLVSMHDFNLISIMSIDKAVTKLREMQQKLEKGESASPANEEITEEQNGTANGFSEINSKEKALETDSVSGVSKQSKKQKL
Chain of purified human, His-tagged PRC2 complex (Q6ZN18 whole entry partner): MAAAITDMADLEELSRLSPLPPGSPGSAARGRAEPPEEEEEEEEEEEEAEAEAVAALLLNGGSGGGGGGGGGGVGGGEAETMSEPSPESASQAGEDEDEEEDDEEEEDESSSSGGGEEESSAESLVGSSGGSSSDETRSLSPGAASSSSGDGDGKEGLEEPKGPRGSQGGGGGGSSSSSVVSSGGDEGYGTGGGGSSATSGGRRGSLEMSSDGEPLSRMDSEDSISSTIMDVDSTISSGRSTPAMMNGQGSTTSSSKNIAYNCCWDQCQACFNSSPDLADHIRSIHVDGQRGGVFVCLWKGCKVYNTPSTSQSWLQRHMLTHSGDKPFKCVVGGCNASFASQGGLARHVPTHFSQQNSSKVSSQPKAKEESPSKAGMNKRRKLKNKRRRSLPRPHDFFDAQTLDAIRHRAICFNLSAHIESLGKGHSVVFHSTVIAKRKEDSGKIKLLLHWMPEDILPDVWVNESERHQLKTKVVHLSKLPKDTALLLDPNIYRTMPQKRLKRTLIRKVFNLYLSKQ
Chain of purified human, His-tagged PRC2 complex (Q09028 whole entry partner): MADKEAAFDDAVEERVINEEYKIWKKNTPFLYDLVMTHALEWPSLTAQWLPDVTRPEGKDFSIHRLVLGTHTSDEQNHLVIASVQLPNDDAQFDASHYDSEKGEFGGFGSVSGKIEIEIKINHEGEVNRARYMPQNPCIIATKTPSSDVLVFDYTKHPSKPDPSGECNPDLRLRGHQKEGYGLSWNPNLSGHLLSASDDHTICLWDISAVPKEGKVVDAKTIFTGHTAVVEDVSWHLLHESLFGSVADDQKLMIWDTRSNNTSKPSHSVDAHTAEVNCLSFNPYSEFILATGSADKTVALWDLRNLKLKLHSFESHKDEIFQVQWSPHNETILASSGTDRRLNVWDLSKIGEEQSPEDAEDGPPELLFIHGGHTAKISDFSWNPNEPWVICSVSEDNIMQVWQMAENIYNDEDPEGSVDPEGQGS

As to `CN(C)CCn1nccc1-c1cnc(NCc2c(F)ccc3c2CCO3)c2cnncc12` [Example 18, 8-(1-(2-(dimethylamino)ethyl)-1H-pyrazol-5-yl)-N-((5-fluoro-2,3-dihydrobenzofuran-4-yl)methyl)pyrido[3,4-d]pyridazin-5-amine], the IC50 is 100 to 500 nM in assay [1], ≤ 250 nM in assay [2] and > 250 nM in assay [3].
On the same counts, the results for `CNCc1ccc(-c2cnc(NCc3c(F)ccc4c3CCO4)c3cnncc23)c(C)c1` [Example 19, N-((5-fluoro-2,3-dihydrobenzofuran-4-yl)methyl)-8-(2-methyl-4-((methylamino)methyl)phenyl)pyrido[3,4-d]pyridazin-5-amine] are ≤ 100 nM, ≤ 250 nM and < 100 nM.
As for `CCNCc1ccc(-c2cnc(NCc3c(F)ccc4c3CCO4)c3cnncc23)c(C)c1` [Example 20, 8-(4-((ethylamino)methyl)-2-methylphenyl)-N-((5-fluoro-2,3-dihydrobenzofuran-4-yl)methyl)pyrido[3,4-d]pyridazin-5-amine], the IC50 is ≤ 100 nM in assay [1], ≤ 250 nM in assay [2] and < 100 nM in assay [3].
For `CNCc1ccc(-c2cnc(NCc3c(F)ccc4c3CCO4)c3cnncc23)cc1` [Example 21, N-((5-fluoro-2,3-dihydrobenzofuran-4-yl)methyl)-8-(4-((methylamino)methyl)phenyl)pyrido[3,4-d]pyridazin-5-amine] the same measures were 100 to 500 nM, ≤ 250 nM and 100 to 250 nM.
For `Cc1cc(-c2cnc(NCc3c(F)ccc4c3CCO4)c3cncnc23)n(C)n1` [Example 22, 8-(1,3-dimethyl-1H-pyrazol-5-yl)-N-((5-fluoro-2,3-dihydrobenzofuran-4-yl)methyl)pyrido[4,3-d]pyrimidin-5-amine] the same measures were ≤ 100 nM, ≤ 250 nM and < 100 nM.
For `CN(C)Cc1ccc(-c2cnc(NCc3c(F)ccc4c3CCO4)c3cncnc23)cc1` [Example 23] the same measures were 100 to 500 nM, ≤ 250 nM and < 100 nM.
Consider `Cc1cc(CN(C)C)ccc1-c1cnc(NCc2c(F)ccc3c2CCO3)c2cncnc12` [Example 24], for which the figures for the IC50 in assay [1], in assay [2] and in assay [3] were ≤ 100 nM, ≤ 250 nM and < 100 nM, respectively.
For `CN(C)Cc1ccc(-c2cnc(NCc3cccc4c3CCO4)c3cncnc23)cc1` [Example 25] the same measures were 100 to 500 nM, ≤ 250 nM and > 250 nM.
For `CNCc1ccc(-c2cnc(NCc3c(F)ccc4c3CCO4)c3cncnc23)c(C)c1` [Example 26, N-((5-fluoro-2,3-dihydrobenzofuran-4-yl)methyl)-8-(2-methyl-4-((methylamino)methyl)phenyl)pyrido[4,3-d]pyrimidin-5-amine] the same measures were ≤ 100 nM, ≤ 250 nM and < 100 nM.
For the molecule `CSc1ncc2c(NCc3c(F)ccc4c3CCO4)ncc(-c3cc(C)nn3C)c2n1` [Example 27, 8-(1,3-dimethyl-1H-pyrazol-5-yl)-N-((5-fluoro-2,3-dihydrobenzofuran-4-yl)methyl)-2-(methylthio)pyrido[4,3-d]pyrimidin-5-amine], the IC50 was 100 to 500 nM in assay [1], ≤ 250 nM in assay [2] and < 100 nM in assay [3].
For `COc1ncc2c(NCc3c(F)ccc4c3CCO4)ncc(-c3cc(C)nn3C)c2n1` [Example 28, 8-(1,3-dimethyl-1H-pyrazol-5-yl)-N-((5-fluoro-2,3-dihydrobenzofuran-4-yl)methyl)-2-methoxypyrido[4,3-d]pyrimidin-5-amine], the figures for the IC50 in assay [1], in assay [2] and in assay [3] were 100 to 500 nM, ≤ 250 nM and < 100 nM, respectively.
Take `Cc1cc(-c2cnc(NCc3c(F)ccc4c3CCO4)c3cnccc23)n(C)n1` [Example 29, 4-(1,3-dimethyl-1H-pyrazol-5-yl)-N-((5-fluoro-2,3-dihydrobenzofuran-4-yl)methyl)-2,7-naphthyridin-1-amine]: the IC50 is 100 to 500 nM in assay [1], 250 to 500 nM in assay [2] and < 100 nM in assay [3].
For `Cc1cc(CN(C)C)ccc1-c1cnc(NCc2c(F)ccc3c2CCO3)c2cnccc12` [Example 30] the same measures were > 500 nM, > 500 nM and > 250 nM.
On the same counts, the results for `Cc1cc(S(C)(=O)=O)ccc1-c1cnc(NCc2c(F)ccc3c2CCO3)c2cnccc12` [Example 31] are > 500 nM, > 500 nM and 100 to 250 nM.
